Laboratory results from paper PMC13288645, “A cryopreserved and in vivo-in vitro validated human induced pluripotent stem cell blood-brain barrier model for reliable neurotoxicity assessment” (NAM journal, 2025).
“And” between values parts separate entries of the source, which are not always exact repeats. Identical values can stand only once.

Tests used:
[1] = in vitro; conditions: human
Source text: All human iPSC-derived blood-brain barrier cells (Brain Microvascular Endothelial Cells (BMECs), Astrocytes and Pericytes (AP)), media (BMEC maintenance medium and AP medium), and media supplements (plating supplement 500X) have been purchased from Fujifilm Cellular Dynamics Inc. (FCDI, Madison, WI, US, catalogue: R1241). The respective certificates of analysis, including cell characterization data, can be accessed in Supplementary Data File 1. All cells were derived from the same proprietary donor. […] All additional experiments included 96-transwell® membranes only. […] BMEC maintenance medium contained only 1 % P/S without supplements. Unless stated differently, transwell® compartment volumes were used as recommended by Corning including 75 µL apically and 235 µL basolaterally for 96-transwells® as well as 300 µL apically and 1000 µL basolaterally for 24-transwells®.
On day −2, 24-transwells® were coated apically with Collagen IV-Fibronectin coating solution and stored overnight at 4 °C (Fig. 1A). In contrast, 96-transwells® were first flipped upside down, and coated with 50 µL Fibronectin-Collagen IV solution on the basolateral side for 4 h at 37 °C and 5 % CO2 and stored overnight at 4 °C (Fig. 1B). On day −1, 24-transwells® were flipped upside down and coated with 100 µL of a 0.1 % Gelatin solution for 0.5 h at room temperature (RT) before replacement with 100 µL of the AP seeding solution containing 1.1 × 10^6 astrocytes/mL and 2.2 × 10^6 pericytes/mL in AP plating medium. After seeding, cells were incubated to attach for 4 h at 37 °C and 5 % CO2 and then flipped back to normal orientation. […] In both cases, Collagen IV-Fibronectin coating solution was replaced with AP plating medium. […] Here, cells were incubated to attach for 4 h at 37 °C and 5 % CO2 before flipping the transwells® slowly back to normal orientation. To inspect the cell layers for obvious leakages or cell detachment, blank transwell® filters and fully assembled models were observed under a Zeiss Primovert microscope (Carl Zeiss Microscopy GmbH, Jena, Germany) (Supplementary Figure 1). On day 1, BMEC plating medium was replaced by BMEC maintenance medium. After 24 h at 37 °C and 5 % CO2 barrier integrity was evaluated to consider only highly restrictive BBB models for pharmaceutical permeability testing.
After 60 min at 37 °C, 5 % CO2 and 100 rpm shaking on an orbital shaker, 50 µL were sampled from the donor and acceptor (containing APs) compartment. Following a transfer to 96-well plates, samples were diluted 1:1 with 50 µL of DPBS.
With cac being the analyte concentration in the acceptor compartment (µM), t the duration of the incubation (s, here 3 600 s), A the surface area of the respective transwell® membrane (cm^2), Vac the volume of the acceptor compartment (mL) and cdc the applied concentration in the donor compartment (µM). Papp was reported as the average of triplicate 24-transwell® models and six 96-transwell® model replicates.
Additional compound data, including final solvent concentrations and physicochemical properties, were summarized in Supplementary Table 1. After 60 min at 37 °C, 5 % CO2 and 100 rpm shaking on an orbital shaker, 50 µL were sampled from the acceptor and donor compartments of quadruplicate BBB models as well as cell-free controls.
Then, all samples were subject to protein precipitation with acetonitrile:methanol 50:50 (v/v). After centrifugation for 10 min at 10 000 × g, supernatants were transferred to new vials and subsequently evaporated to dryness. […] Derivatization was executed in a ThermoMixer C (Eppendorf, Hamburg, Germany) at 65 °C and 600 rpm for 15 min. After evaporating samples to dryness again, final reconstitution was performed as described above.

[2] = test system: BBB; conditions: cited from earlier work; for In vivo human rate constant for compound transfer from blood across the BBB into brain (K1): human clinical PET, ref Ghazanfari et al. 2024, Le Roux et al. 2019
[3] = test system: BBB; test: Prediction of human in vivo K1 from in vitro Papp with the linear model
[4] = test system: hiPSC-derived blood-brain barrier model; conditions: human
[5] = test system: rats; conditions: oral dosing, ref Amaraneni et al., 2016, Kim et al., 2008, 2007; cited from earlier work
[6] = test system: hiPSC-derived blood-brain barrier model; test: Bioavailable radioactivity of [benzyl-14C]-Deltamethrin in the transwell media by liquid scintillation counting; conditions: 1h, per replicate, listed as [benzyl-14C]-Deltamethrin
[7] = test system: hiPSC-derived BBB; parameters: method as in Le Roux et al., 2019; conditions: high in vitro permeability not confirmed by this study; ref Le Roux et al., 2019; cited from earlier work
[8] = source not stated; cited from earlier work
[9] = In vitro hiPSC-derived blood-brain barrier model apparent permeability (Papp)
[10] = male, in vitro apparent permeability Papp
[11] = male, in vitro apparent permeability Papp, 96-transwell hiPSC-derived BBB, 60 min, 5 µM (17β-Estradiol 10 µM, Deltamethrin 3 µM)

Papp at 60 min [1, 9] [×10⁻⁶ cm/s]	Papp at 60 min [1, 10] [×10⁻⁶ cm/s]	Structure (SMILES)	In vivo human rate constant for compound transfer from blood across the BBB into brain (K1) [2] [mL min^-1 cm^-3]	Papp at 60 min ([1]; male) [×10⁻⁶ cm/s]	Papp at 60 min [1, 11] [×10⁻⁶ cm/s]	LogP [8]	also measured
16.9	> 15	C[C@]12CC[C@@H]3c4ccc(O)cc4CC[C@H]3[C@@H]1CC[C@@H]2O [17β-Estradiol]	0.24				human in vivo permeability K1 (elevated) ([2]; human, ref Delforge et al., 1995, Le Roux et al., 2019, Zubieta et al., 2000): > 0.1 mL cm^-3 min^-1
		C#Cc1cccc(Nc2ncnc3cc(OCCOC)c(OCCOC)cc23)c1 [Erlotinib]	0.02	12.1	< 15		in vitro permeability Papp in previous hiPSC-derived BBB results [7]: > 15 × 10^–6 cm/s
		CCOC(=O)c1ncn2c1CN(C)C(=O)c1cc(F)ccc1-2 [Flumazenil]				1.9	
		CN(C)C(=O)C(CCN1CCC(O)(c2ccc(Cl)cc2)CC1)(c1ccccc1)c1ccccc1 [Loperamide]	0.002	6.75	< 15	5.13	human in vivo K1 (clinically shown to enter the human brain relatively poorly) ([2]; human, ref Bauer et al., 2015, Traxl et al.): < 0.05 mL cm^-3 min^-1
16.8	> 15	CCN1CCC[C@H]1CNC(=O)c1c(O)c(Cl)cc(Cl)c1OC [Raclopride]	0.09				

Structure (SMILES)	Papp at 60 min [1, 9] [×10⁻⁶ cm/s]	Papp at 60 min [1, 10] [×10⁻⁶ cm/s]	In vivo human rate constant for compound transfer from blood across the BBB into brain (K1) [2] [mL min^-1 cm^-3]	Papp at 60 min ([1]; male) [×10⁻⁶ cm/s]	Papp at 60 min [1, 11] [×10⁻⁶ cm/s]	LogP [8]	also measured
CC1(C)[C@H](C(=O)O[C@H](C#N)c2cccc(Oc3ccccc3)c2)[C@@H]1C=C(Br)Br [Deltamethrin]		0.979					predicted in vivo K1 ([3]; after insertion of Papp into the linear model): −0.099 mL cm^-3 min^-1; Prediction of K1 ([3]; human in vivo K1 predicted from in vitro Papp with the linear model): -0.099 mL min^-1 cm^-3; Bioavailable [benzyl-14C]-Deltamethrin [4]: 786.44 Bq; brain entry and neurotoxic effects in rats [5]: entered the brain and exhibited neurotoxic effects only after 10 mg/kg oral dosing; Radioactivity Sample apical ([6]; BBB model, acceptor compartment): 1.40 Bq and 1.53 Bq and 1.70 Bq and 2.08 Bq; Radioactivity Sample basolateral ([6]; BBB model, donor compartment): 737.12 Bq and 789.28 Bq and 793.66 Bq and 818.98 Bq; Radioactivity Blank apical ([6]; cell-free control transwell with compound, acceptor compartment): 3.00 Bq and 3.65 Bq and 3.95 Bq and 2.93 Bq; Radioactivity Blank basolateral ([6]; cell-free control transwell with compound, donor compartment): 762.65 Bq and 864.27 Bq and 830.94 Bq and 846.43 Bq
